The results in this text go back to patent publication US20230077362A1 (CORTEVA AGRISCIENCE LLC, priority 2019, published 2023).

Test [1] deals with Beet Armyworm (Spodoptera exigua) ("BAW"), second instar larvae. The test is described as follows: Bioassay on beet armyworm (BAW), 128-well diet tray assay. The test is classed as in vivo. As to conditions: Spodoptera exigua, read-out: BAW rating. The essentials: (§1)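 Sealed trays, 25° C., 14:10 light:dark, 5–7 d. Per-well % mortality recorded, mean of eight wells reported.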
Test [2] concerns Cabbage Looper (Trichoplusia ni) ("CL"), second instar larvae. The test is described as follows: Bioassay on cabbage looper (CL), 128-well diet tray assay. Type of test: in vivo. To be noted: Trichoplusia ni, read-out: CL rating. In outline:
as §1

On to `Cc1ccc(COCC(F)F)c(N2C(=O)CS/C2=N\C(=O)Nc2ccc(-c3nnn(-c4ccc(OC(F)(F)F)cc4)n3)cc2)c1` [Compound J768, (Z)-1-(3-(2-((2,2-Difluoroethoxy)methyl)-5-methylphenyl)-4-oxothiazolidin-2-ylidene)-3-(4-(2-(4-(trifluoromethoxy)phenyl)-2H-tetrazol-5-yl)phenyl)urea], for which the pest or weed control at 50 µg/cm2 in test [1] and in test [2] was 50 to 100% throughout.
Turning to `Cc1ccc(COCC(F)(F)F)c(N2C(=O)CS/C2=N\C(=O)Nc2ccc(-c3ncn(-c4ccccc4)n3)cc2F)c1` [Compound J769, (Z)-1-(2-Fluoro-4-(1-phenyl-1H-1,2,4-triazol-3-yl)phenyl)-3-(3-(5-methyl-2-((2,2,2-trifluoroethoxy)methyl)phenyl)-4-oxothiazolidin-2-ylidene)urea], the pest or weed control at 50 µg/cm2 in test [1] and in test [2] was 50 to 100% in each case.
As to `Cc1ccc(COCC(F)(F)F)c(N2C(=O)CS/C2=N\C(=O)Nc2ccc(-c3noc(-c4ccc(OC(F)(F)F)cc4)n3)cc2F)c1` [Compound J770, (Z)-1-(2-Fluoro-4-(5-(4-(trifluoromethoxy)phenyl)-1,2,4-oxadiazol-3-yl)phenyl)-3-(3-(5-methyl-2-((2,2,2-trifluoroethoxy)methyl)phenyl)-4-oxothiazolidin-2-ylidene)urea], the pest or weed control at 50 µg/cm2 in test [1] and in test [2] was 50 to 100% in each case.
In the case of `Cc1ccc(COCC(F)F)c(N2C(=O)CS/C2=N\C(=O)Nc2ccc(-c3noc(-c4ccc(OC(F)(F)F)cc4)n3)cc2F)c1` [Compound J771, (Z)-1-(3-(2-((2,2-Difluoroethoxy)methyl)-5-methylphenyl)-4-oxothiazolidin-2-ylidene)-3-(2-fluoro-4-(5-(4-(trifluoromethoxy)phenyl)-1,2,4-oxadiazol-3-yl)phenyl)urea], the pest or weed control at 50 µg/cm2 in test [1] and in test [2] was 50 to 100% each time.
As to `COCc1ccc(C)cc1N1C(=O)CS/C1=N\C(=O)Nc1ccc(-c2noc(-c3ccc(OC(F)(F)F)cc3)n2)cc1F` [Compound J772, (Z)-1-(2-Fluoro-4-(5-(4-(trifluoromethoxy)phenyl)-1,2,4-oxadiazol-3-yl)phenyl)-3-(3-(2-(methoxymethyl)-5-methylphenyl)-4-oxothiazolidin-2-ylidene)urea], the pest or weed control at 50 µg/cm2 in test [1] and in test [2] was 50 to 100% in each case.
As for `COCc1ccc(N(C)C)cc1N1C(=O)CS/C1=N\C(=O)Nc1ccc(-c2noc(-c3ccc(OC(F)(F)F)cc3)n2)cc1F` [Compound J773, (Z)-1-(3-(5-(Dimethylamino)-2-(methoxymethyl)phenyl)-4-oxothiazolidin-2-ylidene)-3-(2-fluoro-4-(5-(4-(trifluoromethoxy)phenyl)-1,2,4-oxadiazol-3-yl)phenyl)urea], the pest or weed control at 50 µg/cm2 in test [1] and in test [2] was 50 to 100% throughout.
For `Cc1ccc(COCC(F)(F)F)c(N2C(=O)C(CO)(CO)S/C2=N\C(=O)Nc2ccc(-c3ncn(-c4ccc(OC(F)(F)F)cc4)n3)cc2F)c1` [Compound J778, (Z)-1-(5,5-Bis(hydroxymethyl)-3-(5-methyl-2-((2,2,2-trifluoroethoxy)methyl)phenyl)-4-oxothiazolidin-2-ylidene)-3-(2-fluoro-4-(1-(4-(trifluoromethoxy)phenyl)-1H-1,2,4-triazol-3-yl)phenyl)urea], the pest or weed control at 50 µg/cm2 in test [1] and in test [2] was 50 to 100% throughout.
Regarding `Cc1ccc(COCCC(F)(F)F)c(N2C(=O)CS/C2=N\C(=O)Nc2ccc(-c3ncn(-c4ccccc4)n3)cc2F)c1` [Compound J779, (Z)-1-(2-Fluoro-4-(1-phenyl-1H-1,2,4-triazol-3-yl)phenyl)-3-(3-(5-methyl-2-((3,3,3-trifluoropropoxy)methyl)phenyl)-4-oxothiazolidin-2-ylidene)urea], the pest or weed control at 50 µg/cm2 in test [1] and in test [2] was 50 to 100% in each case.
